Laboratory results reported in US10821276B2, “System and method to locally deliver therapeutic agent to inner ear” (The Trustees of Columbia University in the City of New York, priority 2012, dated 2020).
Values joined by “and” are separate entries in the source; they are usually repeats but may differ in a detail not shown here. Identical values can stand only once.

Legend:
[1] = intact RWM, cited from earlier work
[2] = Permeability of one pore estimated from diffusion coefficient and membrane thickness (P=D/h); 1% area perforation improvement; conditions: for Ppore: D/h, membrane thickness 10 μm, guinea pig
Text: From Fick's first law, diffusion is described by J=−D∇ϕ (1) where J is diffusion flux in mol/m^2*s, D is the diffusion coefficient in m^2/s, and ϕ is the concentration in mol/l. Then from a one-dimensional simplification of the pore
[formula] This can be further simplified with the gradient is uniform across the pore to obtain
[formula] where x is the axis through the pore in m, cx is the concentration at both ends in mol/l, and h is the RWM thickness in m. Then from the definition of flux
[formula] the permeability of the membrane is Flux=−PA(c1−c0) (5) where P=D/h is the permeability in m/s.
Thus the permeability of one pore can be estimated from the diffusion coefficient and the thickness of the membrane (10 μm, guinea pig).

[3] = Diffusion of 1 mM Rhodamine B across RWM in static Franz diffusion cells, with and without 12.5 μm microperforation; type: in vitro ADME, guinea pig; conditions: for time to reach 10 μM: expected
Description: The diffusion across guinea pig RWM, with and without microperforation, was developed and tested: cochleae, sparing the RWM, were embedded in 3D-printed acrylic holders using hybrid dental composite and light cured to adapt the round window niche to 3 ml Franz diffusion cells. Perforations were created with 12.5 μm diameter needles and examined with light microscopy. Diffusion of 1 mM Rhodamine B across RWM in static diffusion cells was measured via fluorescence microscopy.
In order to carry out this analysis, diffusion of RhoB through the RWM was performed on 12 Hartley Strain Guinea Pigs in a modified diffusion cell at room temperature. Franz™ Cell-type diffusion cells (PermeGear, Inc., Hellertown, Pa.) are made of borosilicate glass and have a 5 mm orifice and a 3 ml receptor volume with flat ground joints (FIG. 30). The cell consists of three parts (FIG. 33): donor chamber, membrane, and receptor chamber.
The donor chamber was filled with 0.3 ml of 1 mM RhoB in PBS meeting the conditions for continuous infinite dosing. Donor chamber was covered with Parafilm® for the duration of the experiment. Drug application surface was determined by size of RWM.
Guinea pig RWM was embedded in an acrylic holder with dental composites (FIG. 34). The acrylic holder was designed and 3D printed (Objet 24, Stratasys, MN) to allow for adaptation of the round window niche containing RWM to the diffusion cell. Dental composites (Dentsply, Milford, Del.) included primer (Prime & Bond® NT™) and a urethane modified Bis-GMA resin (TPH Spectra™) which were light cured at 20 s intervals with a 470 nm light emitting diode greater than 500 mW/cm^2. The diffusion cell was assembled with two custom expanded Polytetraflurane (PTFE) gaskets, 1.5 mm thick, to prevent leakage from the donor or receptor chambers at the diffusion cell/membrane interface. The acrylic holder was tested for reactivity with RhoB and was inert for >48 hours. The RWM was equilibrated in PBS solution for 30 minutes prior to application of RhoB. Membranes were embedded and equilibrated within 2 hours of euthanasia.
Microperforations were introduced in the RWM with manual application of a minutien insect pin (Size 000, 12.5 μm diameter tip, 250 μm diameter shaft) under a binocular microscope. All membranes were imaged before and after diffusion study using bright field, phase contrast or fluorescent microscopy and Z-stacking. Imaging was used to confirm the presence or absence of membrane perforation. 60 images at […] intervals were taken and compiled to create one image. ImageJ (Rasband, W. S., Image J, U.S. National Institutes of Health, Bethesda, Md.) was used to calculate the size of the membrane and, if present, perforation.
The receptor chamber was filled with 3 ml of PBS and continuously stirred at 650 rpm with a cylindrical Teflon® magnetic stirbar to allow rapid mixing of contents without development of a vortex. Sampling port allowed for extraction of fluid samples at various time points to monitor progression of diffusion. The set up and sampling conditions were validated for consistency in the following categories: 1) diffusion cell dimensions, 2) stir bar speed, and 3) sampling frequency, to increase the precision of results across experiments^23.
Sampling of the receiver chamber was made at 12 predetermined times over 24 hours and analyzed with fluorescent microscopy. At each time point 90 μL was removed using a stretched syringe from the center of the receptor chamber and the volume was replaced with 90 μL of fresh PBS. These diffusion experiments are considered static as solution from the receptor chamber is renewed by removal of a set quantity (90 μL) at sampling times and replacement of this volume with fresh medium. The removed 90 μL was then diluted with 360 μL PBS to reduce the effects of evaporation and maintain concentrations within the acceptable detection range of the microscope. The samples were placed on a tilt table to enhance mixing after dilution. […]

[4] = Diffusion of 500 μM rhodamine B across RWM in Franz Cell, with and without manual perforation (10 μm / 100 μm needle); type: in vitro ADME, guinea pig
Description: In another embodiment, a model for measuring diffusion across a guinea pig RWM, was developed and tested. The model is applicable for analysis of the RWM both with and without microperforations. Semicircular canals were removed from the pigs and RWM exposed prior to perforation. In the exemplary embodiment, the cochlea, sparing the RWM, was embedded in a 3D-printed acrylic holder using hybrid dental composite and light cured to adapt the round window niche to a 3 ml Franz™ Cell. The Franz™ Cell is a widely recognized standardized method for studying transdermal drug delivery. Microperforations were created with a 10 μm diameter needle (as shown in FIG. 32) and examined with fluorescent light microscopy (FSX-100, as shown in FIG. 31) as a function of time exposure.
In the exemplary embodiment show in FIGS. 33-34, a Franz Cell was customized in accordance with the present disclosure to include an adapter to allow analysis of a very small membrane in the Franz Cell. The adaptor depicted in FIGS. 33B and 34 was manufactured with a 3-dimensional printer, though alternative manufacturing techniques (and suitable materials) are contemplated to be within the scope of the disclosure. The adaptor includes a downwardly extending protrusion or lip (see reference numerals “A” and “B” in FIG. 33) which are configured to engage the Receptor portion of the Franz Cell.
Similarly, FIGS. 37A-C illustrate various Z-stacked perforation images which were compiled from 60 images taken at 5 μm intervals of RWM with perforation: A) bright field microscopy; B) bright field microscopy post diffusion with RhoB; C) Fluorescent microscopy
Manual perforations made with 10 μm needle tip produce an elliptical hole (see arrow in FIG. 38) with axes 30 μm (26-34)×47 μm (44-50). In one example, a manual perforation with 100 μm needle tip created an elliptical tear in the membrane Measuring […]×460 μm, as shown in FIG. 38 (in which the dot “D” indicates tip size).

[5] = cited from earlier work; for D: diffusion coefficient

## C[C@@H]1C[C@H]2[C@@H]3CCC4=CC(=O)C=C[C@]4(C)[C@@]3(F)[C@@H](O)C[C@]2(C)[C@@]1(O)C(=O)CO [Dexamethasone]
[1]
  PRWM: 5.0~35.0 × 10^−8 m/s

## CCN(CC)c1ccc2c(-c3ccccc3C(=O)O)c3ccc(=[N+](CC)CC)cc-3oc2c1.[Cl-] [Rhodamine B]
[2]; not told
  predicted value of pore permeability based on the diffusion coefficient: 4×10^−5 m/s
[3]
  Permeability KP RWM: 0.51 ± 0.41 10^−8 ms^−1
  permeability across the perforation itself: 8.3±2.2×10^−5 m/s
  permeability across the perforation relative to intact membrane: 16,000 times
  permeability coefficient of the RWM with microperforations: 18.1±6.1×10^−8 m/s
[3]; 3×3 array of perforations
  time to reach 10 μM: 30 min
[3]; intact membrane
  time to diffuse 10 μM across the RWM: 7 days
[3]; single 12.5 μm tip microperforation, 0.22% of membrane
  increase in permeability / enhancement in diffusion with microperforation vs intact RWM: 35 times
[3]; single microperforation of approximately 2.5×10^−3 mm^2
  time to diffuse 10 μM across the RWM: under 5 hours
[3]; three perforations
  time to reach 10 μM: 90 min
[4]; 10 μm needle, 30 × 47 μm perforation
  enhancement in diffusion: 160 ×
[4]; 100 μm needle, 240 × 460 μm elliptical perforation
  enhancement in diffusion: 3500 ×
[4]; guinea pig
  Microperforated KP: 3.21×10^−6 m/s
[4]; membranes with a small microperforation
  time required to reach 250 μM: 8.5 days
[4]; unperforated membrane, 250 μM = ½ applied concentration
  time required to reach 250 μM: 3.7 years
[5]
  Diffusion Coefficient in water at 25° C. (298 K): 4.5 ± 0.4 10^−6 cm^2s^−1 and 4.27 ± 0.04 10^−6 cm^2s^−1

## C[N+](C)(C)c1ccccc1 [TMPA]
[2]
  Ppore: 1.01 × 10^−4 m/s
[1]; guinea pig model
  permeability of the RWM: 1.9×10^−8 m/s
[1]
  PRWM: 1.9 × 10^−8 m/s
[5]
  D: 1.01 × 10^−9 m2/s

## Gentamicin
[2]
  Ppore: 6.82 × 10^−5 m/s
[1]
  PRWM: 3.5 ± 4.6 × 10^−8 m/s
[5]
  D: 6.82 × 10^−10 m2/s
  Diffusion Coefficient in water at 25° C. (298 K): 6.82 10^−6 cm^2s^−1
